smiles,measurement,setting,value
Nc1cc(Cl)ccc1C(=O)O,solubility (mole fraction),"in 1,4-dioxane, 283.15 K",0.0158
same,solubility (mole fraction),"in 1,4-dioxane, 285.65 K",0.0173
same,solubility (mole fraction),"in 1,4-dioxane, 288.15 K",0.0191
same,solubility (mole fraction),"in 1,4-dioxane, 290.65 K",0.0209
same,solubility (mole fraction),"in 1,4-dioxane, 293.15 K",0.0228
same,solubility (mole fraction),"in 1,4-dioxane, 295.65 K",0.0248
same,solubility (mole fraction),"in 1,4-dioxane, 298.15 K",0.0271
same,solubility (mole fraction),"in 1,4-dioxane, 300.65 K",0.0295
same,solubility (mole fraction),"in 1,4-dioxane, 303.15 K",0.032
same,solubility (mole fraction),"in 1,4-dioxane, 305.65 K",0.0348
same,solubility (mole fraction),"in 1,4-dioxane, 308.15 K",0.0375
same,solubility (mole fraction),"in 1,4-dioxane, 310.65 K",0.0405
same,solubility (mole fraction),"in 1,4-dioxane, 313.15 K",0.0436
same,solubility (mole fraction),"in NMP, 278.15 K",0.0323
same,solubility (mole fraction),"in NMP, 280.65 K",0.0338
same,solubility (mole fraction),"in NMP, 283.15 K",0.0354
same,solubility (mole fraction),"in NMP, 285.65 K",0.037
same,solubility (mole fraction),"in NMP, 288.15 K",0.0388
same,solubility (mole fraction),"in NMP, 290.65 K",0.0406
same,solubility (mole fraction),"in NMP, 293.15 K",0.0425
same,solubility (mole fraction),"in NMP, 295.65 K",0.0445
same,solubility (mole fraction),"in NMP, 298.15 K",0.0465
same,solubility (mole fraction),"in NMP, 300.65 K",0.0487
same,solubility (mole fraction),"in NMP, 305.65 K",0.0531
same,solubility (mole fraction),"in NMP, 308.15 K",0.0556
same,solubility (mole fraction),"in NMP, 310.65 K",0.0581
same,solubility (mole fraction),"in NMP, 313.15 K",0.0607
same,solubility (mole fraction),"in acetone, 278.15 K",0.0159
same,solubility (mole fraction),"in acetone, 280.65 K",0.0174
same,solubility (mole fraction),"in acetone, 283.15 K",0.0189
same,solubility (mole fraction),"in acetone, 285.65 K",0.0207
same,solubility (mole fraction),"in acetone, 288.15 K",0.0226
same,solubility (mole fraction),"in acetone, 290.65 K",0.0243
same,solubility (mole fraction),"in acetone, 293.15 K",0.0261
same,solubility (mole fraction),"in acetone, 295.65 K",0.0283
same,solubility (mole fraction),"in acetone, 298.15 K",0.0307
same,solubility (mole fraction),"in acetone, 300.65 K",0.0328
same,solubility (mole fraction),"in acetone, 303.15 K",0.0351
same,solubility (mole fraction),"in acetone, 305.65 K",0.0378
same,solubility (mole fraction),"in acetone, 308.15 K",0.0404
same,solubility (mole fraction),"in acetone, 310.65 K",0.0433
same,solubility (mole fraction),"in acetone, 313.15 K",0.0463
same,solubility (mole fraction),"in acetonitrile, 278.15 K",0.00138
same,solubility (mole fraction),"in acetonitrile, 280.65 K",0.00154
same,solubility (mole fraction),"in acetonitrile, 283.15 K",0.00169
same,solubility (mole fraction),"in acetonitrile, 285.65 K",0.00188
same,solubility (mole fraction),"in acetonitrile, 288.15 K",0.00208
same,solubility (mole fraction),"in acetonitrile, 290.65 K",0.00229
same,solubility (mole fraction),"in acetonitrile, 293.15 K",0.00252
same,solubility (mole fraction),"in acetonitrile, 295.65 K",0.00277
same,solubility (mole fraction),"in acetonitrile, 298.15 K",0.00303
same,solubility (mole fraction),"in acetonitrile, 300.65 K",0.00332
same,solubility (mole fraction),"in acetonitrile, 303.15 K",0.00362
same,solubility (mole fraction),"in acetonitrile, 305.65 K",0.00395
same,solubility (mole fraction),"in acetonitrile, 308.15 K",0.00431
same,solubility (mole fraction),"in acetonitrile, 310.65 K",0.00468
same,solubility (mole fraction),"in acetonitrile, 313.15 K",0.0051
same,solubility (mole fraction),"in ethanol, 278.15 K",0.00994
same,solubility (mole fraction),"in ethanol, 280.65 K",0.0109
same,solubility (mole fraction),"in ethanol, 283.15 K",0.0118
same,solubility (mole fraction),"in ethanol, 285.65 K",0.0129
same,solubility (mole fraction),"in ethanol, 288.15 K",0.014
same,solubility (mole fraction),"in ethanol, 290.65 K",0.0151
same,solubility (mole fraction),"in ethanol, 293.15 K",0.0164
same,solubility (mole fraction),"in ethanol, 295.65 K",0.0177
same,solubility (mole fraction),"in ethanol, 298.15 K",0.0191
same,solubility (mole fraction),"in ethanol, 300.65 K",0.0205
same,solubility (mole fraction),"in ethanol, 303.15 K",0.0221
same,solubility (mole fraction),"in ethanol, 305.65 K",0.0238
same,solubility (mole fraction),"in ethanol, 308.15 K",0.0255
same,solubility (mole fraction),"in ethanol, 310.65 K",0.0273
same,solubility (mole fraction),"in ethanol, 313.15 K",0.0293
same,solubility (mole fraction),"in ethyl acetate, 278.15 K",0.0125
same,solubility (mole fraction),"in ethyl acetate, 280.65 K",0.0136
same,solubility (mole fraction),"in ethyl acetate, 283.15 K",0.0149
same,solubility (mole fraction),"in ethyl acetate, 285.65 K",0.0161
same,solubility (mole fraction),"in ethyl acetate, 288.15 K",0.0176
same,solubility (mole fraction),"in ethyl acetate, 290.65 K",0.0191
same,solubility (mole fraction),"in ethyl acetate, 293.15 K",0.0206
same,solubility (mole fraction),"in ethyl acetate, 295.65 K",0.0222
same,solubility (mole fraction),"in ethyl acetate, 298.15 K",0.0241
same,solubility (mole fraction),"in ethyl acetate, 300.65 K",0.0259
same,solubility (mole fraction),"in ethyl acetate, 303.15 K",0.0278
same,solubility (mole fraction),"in ethyl acetate, 308.15 K",0.0321
same,solubility (mole fraction),"in ethyl acetate, 310.65 K",0.0343
same,solubility (mole fraction),"in ethyl acetate, 313.15 K",0.0368
same,solubility (mole fraction),"in ethylbenzene, 278.15 K",0.00011
same,solubility (mole fraction),"in ethylbenzene, 280.65 K",0.00013
same,solubility (mole fraction),"in ethylbenzene, 283.15 K",0.000149
same,solubility (mole fraction),"in ethylbenzene, 285.65 K",0.000172
same,solubility (mole fraction),"in ethylbenzene, 288.15 K",0.000196
same,solubility (mole fraction),"in ethylbenzene, 290.65 K",0.000224
same,solubility (mole fraction),"in ethylbenzene, 293.15 K",0.000255
same,solubility (mole fraction),"in ethylbenzene, 295.65 K",0.00029
same,solubility (mole fraction),"in ethylbenzene, 298.15 K",0.000326
same,solubility (mole fraction),"in ethylbenzene, 300.65 K",0.000371
same,solubility (mole fraction),"in ethylbenzene, 303.15 K",0.000418
same,solubility (mole fraction),"in ethylbenzene, 305.65 K",0.000472
same,solubility (mole fraction),"in ethylbenzene, 308.15 K",0.000528
same,solubility (mole fraction),"in ethylbenzene, 310.65 K",0.000594
same,solubility (mole fraction),"in ethylbenzene, 313.15 K",0.000664
same,solubility (mole fraction),"in isopropanol, 278.15 K",0.00925
same,solubility (mole fraction),"in isopropanol, 280.65 K",0.0101
same,solubility (mole fraction),"in isopropanol, 283.15 K",0.0111
same,solubility (mole fraction),"in isopropanol, 285.65 K",0.012
same,solubility (mole fraction),"in isopropanol, 288.15 K",0.0131
same,solubility (mole fraction),"in isopropanol, 290.65 K",0.0143
same,solubility (mole fraction),"in isopropanol, 293.15 K",0.0155
same,solubility (mole fraction),"in isopropanol, 295.65 K",0.0167
same,solubility (mole fraction),"in isopropanol, 298.15 K",0.0181
same,solubility (mole fraction),"in isopropanol, 300.65 K",0.0195
same,solubility (mole fraction),"in isopropanol, 303.15 K",0.0211
same,solubility (mole fraction),"in isopropanol, 305.65 K",0.0227
same,solubility (mole fraction),"in isopropanol, 308.15 K",0.0244
same,solubility (mole fraction),"in isopropanol, 310.65 K",0.0262
same,solubility (mole fraction),"in isopropanol, 313.15 K",0.0282
same,solubility (mole fraction),"in n-butanol, 278.15 K",0.00768
same,solubility (mole fraction),"in n-butanol, 280.65 K",0.0084
same,solubility (mole fraction),"in n-butanol, 283.15 K",0.00925
same,solubility (mole fraction),"in n-butanol, 285.65 K",0.0102
same,solubility (mole fraction),"in n-butanol, 288.15 K",0.0111
same,solubility (mole fraction),"in n-butanol, 290.65 K",0.0121
same,solubility (mole fraction),"in n-butanol, 293.15 K",0.0132
same,solubility (mole fraction),"in n-butanol, 295.65 K",0.0144
same,solubility (mole fraction),"in n-butanol, 298.15 K",0.0157
same,solubility (mole fraction),"in n-butanol, 300.65 K",0.017
same,solubility (mole fraction),"in n-butanol, 303.15 K",0.0184
same,solubility (mole fraction),"in n-butanol, 305.65 K",0.0199
same,solubility (mole fraction),"in n-butanol, 308.15 K",0.0215
same,solubility (mole fraction),"in n-butanol, 310.65 K",0.0232
same,solubility (mole fraction),"in n-butanol, 313.15 K",0.025
same,solubility (mole fraction),"in n-propanol, 278.15 K",0.00869
same,solubility (mole fraction),"in n-propanol, 280.65 K",0.0095
same,solubility (mole fraction),"in n-propanol, 283.15 K",0.0103
same,solubility (mole fraction),"in n-propanol, 285.65 K",0.0113
same,solubility (mole fraction),"in n-propanol, 288.15 K",0.0123
same,solubility (mole fraction),"in n-propanol, 290.65 K",0.0134
same,solubility (mole fraction),"in n-propanol, 293.15 K",0.0144
same,solubility (mole fraction),"in n-propanol, 295.65 K",0.0157
same,solubility (mole fraction),"in n-propanol, 298.15 K",0.017
same,solubility (mole fraction),"in n-propanol, 300.65 K",0.0184
same,solubility (mole fraction),"in n-propanol, 303.15 K",0.0198
same,solubility (mole fraction),"in n-propanol, 305.65 K",0.0214
same,solubility (mole fraction),"in n-propanol, 308.15 K",0.023
same,solubility (mole fraction),"in n-propanol, 310.65 K",0.0248
same,solubility (mole fraction),"in n-propanol, 313.15 K",0.0266
same,solubility (mole fraction),"in toluene, 278.15 K",0.000136
same,solubility (mole fraction),"in toluene, 280.65 K",0.000157
same,solubility (mole fraction),"in toluene, 283.15 K",0.00018
same,solubility (mole fraction),"in toluene, 285.65 K",0.000204
same,solubility (mole fraction),"in toluene, 288.15 K",0.000233
same,solubility (mole fraction),"in toluene, 290.65 K",0.000266
same,solubility (mole fraction),"in toluene, 293.15 K",0.000299
same,solubility (mole fraction),"in toluene, 295.65 K",0.000339
same,solubility (mole fraction),"in toluene, 298.15 K",0.000384
same,solubility (mole fraction),"in toluene, 300.65 K",0.000427
same,solubility (mole fraction),"in toluene, 303.15 K",0.000478
same,solubility (mole fraction),"in toluene, 305.65 K",0.000533
same,solubility (mole fraction),"in toluene, 308.15 K",0.000597
same,solubility (mole fraction),"in toluene, 310.65 K",0.000668
same,solubility (mole fraction),"in toluene, 313.15 K",0.000742
